From US20210070747A1, “2(1H)-QUINOLINONE DERIVATIVE” (priority 2017, published 2021)
In brackets after ≈: the same amount, converted by molar mass. Where a name gives a salt, the structure may show the parent alone. Read-outs that look alike come from different tables or passages of the source.

Key:
[1] = system: N. gonorrhoeae ATCC 49226; assay: Test for evaluating antibacterial activity (N. gonorrhoeae), broth microdilution MIC; assay type: cell-based; conditions: Neisseria gonorrhoeae, ATCC49226; 35° C., 24 hours, gonococcal broth
How it was run: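 Broth microdilution in gonococcal broth with 1% supplement C, inoculum from overnight chocolate II agar culture at McFarland 0.5 diluted 5-fold.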

E. coli DNA gyrase = molecular target: T1, E. coli DNA gyrase (Escherichia coli, UniProt P0AES6); assay: Test for evaluating the activity of inhibiting E. coli DNA gyrase enzyme (Method 1, supercoiling, Inspiralis enzyme); assay type: biochemical
T1 construct: made in house; host or cells: E. coli BL21 (DE3)
Description: Test Example 1-1 Test for Evaluating the Activity of Inhibiting E. coli DNA Gyrase Enzyme (Method 1)
The enzymatic activity of E. coli DNA gyrase was measured by a method comprising reacting DNA gyrase and its substrate, relaxed pBR322 (Inspiralis), in the presence of ATP and detecting the post-reaction supercoiled pBR322/relaxed pBR322 ratio with H19 (Profoldin).
Specifically, to 1 ng/μL of relaxed pBR322, E. coli DNA gyrase enzyme (Inspiralis) was added at a final concentration of 0.006 U/μL and the mixture was incubated for 60 minutes at room temperature. This reaction was carried out in 20 mmol/L tris-HCl buffered solution (pH 8.0) comprising 0.5 mmol/L ATP, 0.005% bridge 35, 35 mmol/L ammonium acetate, 8 mmol/L magnesium chloride, 4.6% glycerol, and 1 mmol/L dithiothreitol. To the reaction mixture, H19 was added to bring the reaction to an end; thereafter, the supercoiled pBR322/relaxed pBR322 ratio was detected at excitation wavelength/emission wavelength=485 nm/535 nm. An inhibition curve was obtained by allowing the analyte compound to be present at varying concentrations during the reaction described above. […] The test results of interest are shown in [Table 20-1] and [Table 20-2].

E. Coli ATCC 25922 = assay: Test for evaluating antibacterial activity (E. coli), broth microdilution MIC; assay type: cell-based; conditions: Escherichia coli, ATCC25922; 35° C., 18 hours, cation-adjusted Mueller-Hinton medium
How it was run: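 Broth microdilution per modified CLSI method in cation-adjusted Mueller-Hinton medium. Inoculum from overnight heart infusion agar growth, McFarland 0.5 suspension diluted 10-fold; incubation 35° C for 18 hours. MIC taken as lowest drug concentration with no visible growth.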

[2] = Method 1, read-out: E. Coli Gyrase supercoiling IC50

Structure (SMILES)	MIC [1] [µg/mL]	IC50 (E. coli DNA gyrase; [2]) [nM]	MIC (E. Coli ATCC 25922) [µg/mL]	IC50 (E. coli DNA gyrase) [nM]
CNc1cc(F)cc2cc(C(=O)Nc3cncnc3)c(=O)[nH]c12 [Example 50, 6-fluoro-8-(methylamino)-2-oxo-N-(pyrimidine-5-yl)-1,2-dihydroquinoline-3-carboxamide]	0.06 (≈ 0.192 µM)	1.87	> 8	–
CNc1cccc2cc(C(=O)Nc3cnc(N4CCN(C)CC4)nc3)c(=O)[nH]c12 [Example 28, 8-(methylamino)-N-[2-(4 methylpiperazine-1-yl)pyrimidine-5-yl]-2-oxo-1,2-dihydroquinoline-3-carboxamide]	> 4	32	> 16	–
CNc1cccc2cc(C(=O)NC3CCN(c4ncc(C(=O)O)s4)CC3)c(=O)[nH]c12 [Example 3, 2-(4-{[8-(methylamino)-2-oxo-1,2-dihydroquinoline-3-carbonyl]amino}piperidine-1-yl)-1,3-thiazole-5-carboxylic acid]	> 4	124	> 64	–
CNc1cccc2cc(C(=O)NCc3noc(=O)[nH]3)c(=O)[nH]c12 [Example 14, 8-(methylamino)-2-oxo-N-[(5-oxo-4,5-dihydro-1,2,4-oxadiazole-3-yl)methyl]-1,2-dihydroquinoline-3-carboxamide]	> 4	35500	–	–
CNc1cccc2cc(C(=O)Nc3ccccc3CN(C)C3CCCCC3)c(=O)[nH]c12 [Example 7, N-(2-[[Cyclohexyl(methyl)amino]methyl]phenyl)-8-(methylamino)-2-oxo-1,2-dihydroquinoline-3-carboxamide]	> 4	3.35	> 32	–
CNc1cccc2cc(C(=O)NCCc3cn4cccnc4n3)c(=O)[nH]c12 [Example 29, N-[2-(imidazo [1,2-a]pyrimidine-2-yl)ethyl]-8-(methylamino)-2-oxo-1,2-dihydroquinoline-3-carboxamide]	> 4	28.2	> 64	–
CNc1cccc2cc(C(=O)Nc3cccc(=O)[nH]3)c(=O)[nH]c12 [Example 16, 8-(methylamino)-2-oxo-N-(6-oxo-1,6-dihydro-pyridine-2-yl)-1,2-dihydroquinoline-3-carboxamide]	> 4	131	> 64	–
CNc1cc(F)cc2cc(C(=O)OCc3ccncc3N)c(=O)[nH]c12 [Example 77, (3-aminopyridine-4-yl)methyl 6-fluoro-8-(methylamino)-2-oxo-1,2-dihydroquinoline-3-carboxylate]	1 (≈ 2.92 µM)	24.3	> 16	–
CNc1cccc2cc(C(=O)Nc3ccc(-c4noc(=O)[nH]4)cc3)c(=O)[nH]c12 [Example 18, 8-(methylamino)-2-oxo-N-[4-(5-oxo-4,5-dihydro-1,2,4-oxadiazole-3-yl)phenyl]-1,2-dihydroquinoline-3-carboxamide]	0.25 (≈ 0.662 µM)	15.7	> 0.5	–
CNc1cc(F)cc2cc(C(=O)N(C)c3ccc(C(=O)O)cc3)c(=O)[nH]c12 [Example 56, 4-{[6-fluoro-8-(methylamino)-2-oxo-1,2-dihydroquinoline-3-carbonyl] (melhyl)amino} benzoic acid]	0.12 (≈ 0.325 µM)	–	> 64	18
CN=S(C)(=O)c1ccc(NC(=O)c2cc3cccc(NC)c3[nH]c2=O)cc1 (stereo not drawn) [Example 22, N-[4-(N,S-dimethane-sulfonimidoyl)phenyl]-8-(methylamino)-2-oxo-1,2-dihydroquinoline-3-carboxamide]	> 4	174	> 8	–
CNc1cc(F)cc2cc(C(=O)Nc3ccc(C(=O)O)c(OCCN4CCN(C)CC4)c3)c(=O)[nH]c12 [Example 54, 4-{[6-fluoro-8-(methylamino)-2-oxo-1,2-dihydroquinoline-3-carbonyl]amino}-2-[2-(4-methylpiperazine-1-yl)ethoxy] benzoic acid-hydrochloride]	1	1.9	> 16	–
CNc1cccc2cc(C(=O)OCc3ccncc3N)c(=O)[nH]c12 [Example 19, (3-aminopyridine-4-yl)methyl 8-(methyl-amino)-2-oxo-1,2-dihydroquinoline-3-carboxylate]	> 4	426	> 16	–
CNc1cc(F)cc2cc(C(=O)Nc3ccc(C(=O)O)c(OCCCN)c3)c(=O)[nH]c12.O=CO [Example 62, 2-(3-Aminopropoxy)-4-[[6-fluoro-8-(methylamino)-2-oxo-1,2-dihydroquinoline-3-carbonyl]amino]benzoic acid-formate]	2	–	> 16	0.92
CNc1cccc2cc(C(=O)NCc3ccc(C(=O)O)cc3C)c(=O)[nH]c12 [Example 8, 3-methyl-4-({[8-(methylamino)-2-oxo-1,2-dihydroquinoline-3-carbonyl]amino}methyl)benzoic acid]	4 (≈ 10.9 µM)	30.1	> 64	–
CNc1cc(F)cc2cc(C(=O)Nc3cnc(NCCN4CCN(C)CC4)nc3)c(=O)[nH]c12 [Example 51, 6-fluoro-8-(methylamino)-N-(2-{[2-(4-methylpiperazine-1-yl)ethyl]amino}pyrimidine-5-yl)-2-oxo-1,2-dihydroquinoline-3-carboxamide]	–	5.46	16 (≈ 35.2 µM)	–
CNc1cc(F)cc2cc(C(=O)NCCc3cccnc3)c(=O)[nH]c12 [Example 64, 6-fluoro-8-(methylamino)-2-oxo-N-[2-(pyridine-3-yl)ethyl]-1,2-dihydroquinoline-3-carboxamide]	–	44.7	> 8	–
CNc1cccc2cc(C(=O)Nc3cccnc3)c(=O)[nH]c12 [Example 15, 8-(methylamino)-2-oxo-N-(pyridine-3-yl)-1,2-dihydroquinoline-3-carboxamide]	–	35.9	> 64	–
CNc1cccc2cc(C(=O)Nc3ccc(C(=O)NCCCN)cc3)c(=O)[nH]c12.Cl [Example 46, N-{4-[(3-aminopropyl)carbamoyl]phenyl}-8-(methylamino)-2-oxo-1,2-dihydroquinoline-3-carboxamide-hydrochloride]	–	–	> 1	7.47
CNc1cc(F)cc2cc(C(=O)Nc3cnc(C(=O)NCCO)nc3)c(=O)[nH]c12 [Example 71, 6-Fluoro-N-[2-[(2-hydroxyethyl)carbamoyl]pyrimidin-5-yl]-8-(methylamino)-2-oxo-1,2-dihydroquinoline-3-carboxamide]	–	0.88	> 8	–
CNc1cccc2cc(C(=O)Nc3ccc(C(=O)NCCN4CCOCC4)cc3)c(=O)[nH]c12 [Example 26, 8-(methylamino)-N-(4-{[2-(morpholine-4-yl)ethyl]carbamoyl}phenyl)-2-oxo-1,2-dihydroquinoline-3-carboxamide]	–	17.8	> 32	–
CNc1cccc2cc(C(=O)NC3CN(c4ncc(C(=O)O)s4)C3)c(=O)[nH]c12 [Example 10, 2-(3-{[8-(methylamino)-2-oxo-1,2-dihydroquinoline-3-carbonyl]amino}azetidine-1-yl)-1,3-thiazole-5-carboxylic acid]	–	459	> 64	–
CNc1cc(F)cc2cc(C(=O)Nc3cnc(N4CC(N)C4)nc3)c(=O)[nH]c12.O=CO [Example 60, N-[2-(3-aminoazetidine-1-yl)pyrimidine-5-yl]-6-fluoro-8-(methylamino)-2-oxo-1,2-dihydroquinoline-3-carboxamide-formate]	–	–	> 32	11.8
